# Measurements as given in ChEMBL document CHEMBL3046407, “Toxicity of monoterpenes against larvae and adults of Colorado potato beetle, Leptinotarsa decemlineata Say (Coleoptera: Chrysomelidae)” (2007).
# What was measured:
# Format in all cases: functional
# [1] = system: Leptinotarsa decemlineata; experiment: Insecticidal activity against second-instar larval stage of Leptinotarsa decemlineata infested potato leaves assessed as mortality at 20 ul after 12 hr relative to control
# [2] = system: Leptinotarsa decemlineata; experiment: Insecticidal activity against third-instar larval stage of Leptinotarsa decemlineata infested potato leaves assessed as mortality at 10 ul after 24 hr relative to control
# [3] = system: Leptinotarsa decemlineata; experiment: Insecticidal activity against adult Leptinotarsa decemlineata infested potato leaves assessed as mortality at 10 ul after 24 hr relative to control
# [4] = system: Leptinotarsa decemlineata; experiment: Insecticidal activity against second-instar larval stage of Leptinotarsa decemlineata infested potato leaves assessed as mortality at 10 ul after 24 hr (reference value: 3.3 +/- 3.3%)
# [5] = system: Leptinotarsa decemlineata; experiment: Insecticidal activity against third-instar larval stage of Leptinotarsa decemlineata infested potato leaves assessed as mortality at 10 ul after 96 hr (reference value: 3.3 +/- 3.3%)
# [6] = system: Leptinotarsa decemlineata; experiment: Insecticidal activity against first-instar larval stage of Leptinotarsa decemlineata infested potato leaves assessed as mortality at 10 ul after 96 hr relative to control
# [7] = system: Leptinotarsa decemlineata; experiment: Insecticidal activity against adult Leptinotarsa decemlineata infested potato leaves assessed as mortality at 10 ul after 48 hr relative to control
# [8] = system: Leptinotarsa decemlineata; experiment: Insecticidal activity against third-instar larval stage of Leptinotarsa decemlineata infested potato leaves assessed as mortality at 20 ul after 12 hr relative to control
# [9] = system: Leptinotarsa decemlineata; experiment: Insecticidal activity against third-instar larval stage of Leptinotarsa decemlineata infested potato leaves assessed as mortality at 10 ul after 48 hr (reference value: 3.3 +/- 3.3%)
# [10] = system: Leptinotarsa decemlineata; experiment: Insecticidal activity against first-instar larval stage of Leptinotarsa decemlineata infested potato leaves assessed as mortality at 10 ul after 48 hr relative to control
# [11] = system: Leptinotarsa decemlineata; experiment: Insecticidal activity against third-instar larval stage of Leptinotarsa decemlineata infested potato leaves assessed as mortality at 20 ul after 48 hr (reference value: 3.3 +/- 3.3%)
# [12] = system: Leptinotarsa decemlineata; experiment: Insecticidal activity against first-instar larval stage of Leptinotarsa decemlineata infested potato leaves assessed as mortality at 10 ul after 24 hr relative to control
# [13] = system: Leptinotarsa decemlineata; experiment: Insecticidal activity against second-instar larval stage of Leptinotarsa decemlineata infested potato leaves assessed as mortality at 10 ul after 48 hr (reference value: 3.3 +/- 3.3%)
# [14] = system: Leptinotarsa decemlineata; experiment: Insecticidal activity against third-instar larval stage of Leptinotarsa decemlineata infested potato leaves assessed as mortality at 20 ul after 24 hr relative to control
# [15] = system: Leptinotarsa decemlineata; experiment: Insecticidal activity against adult Leptinotarsa decemlineata infested potato leaves assessed as mortality at 20 ul after 12 hr relative to control
# [16] = system: Leptinotarsa decemlineata; experiment: Insecticidal activity against third-instar larval stage of Leptinotarsa decemlineata infested potato leaves assessed as mortality at 20 ul after 96 hr (reference value: 3.3 +/- 3.3%)
# [17] = system: Leptinotarsa decemlineata; experiment: Insecticidal activity against first-instar larval stage of Leptinotarsa decemlineata infested potato leaves assessed as mortality at 20 ul after 12 hr relative to control
# [18] = system: Leptinotarsa decemlineata; experiment: Insecticidal activity against adult Leptinotarsa decemlineata infested potato leaves assessed as mortality at 10 ul after 96 hr relative to control
# [19] = system: Leptinotarsa decemlineata; experiment: Insecticidal activity against second-instar larval stage of Leptinotarsa decemlineata infested potato leaves assessed as mortality at 10 ul after 12 hr relative to control
# [20] = system: Leptinotarsa decemlineata; experiment: Insecticidal activity against first-instar larval stage of Leptinotarsa decemlineata infested potato leaves assessed as mortality at 20 ul after 48 hr relative to control
# [21] = system: Leptinotarsa decemlineata; experiment: Insecticidal activity against second-instar larval stage of Leptinotarsa decemlineata infested potato leaves assessed as mortality at 20 ul after 96 hr (reference value: 3.3 +/- 3.3%)
# [22] = system: Leptinotarsa decemlineata; experiment: Insecticidal activity against first-instar larval stage of Leptinotarsa decemlineata infested potato leaves assessed as mortality at 20 ul after 96 hr relative to control
# [23] = system: Leptinotarsa decemlineata; experiment: Insecticidal activity against first-instar larval stage of Leptinotarsa decemlineata infested potato leaves assessed as mortality at 10 ul after 12 hr relative to control
# [24] = system: Leptinotarsa decemlineata; experiment: Insecticidal activity against adult Leptinotarsa decemlineata infested potato leaves assessed as mortality at 20 ul after 96 hr relative to control
# [25] = system: Leptinotarsa decemlineata; experiment: Insecticidal activity against third-instar larval stage of Leptinotarsa decemlineata infested potato leaves assessed as mortality at 10 ul after 12 hr relative to control
# [26] = system: Leptinotarsa decemlineata; experiment: Insecticidal activity against second-instar larval stage of Leptinotarsa decemlineata infested potato leaves assessed as mortality at 20 ul after 24 hr (reference value: 3.3 +/- 3.3%)
# [27] = system: Leptinotarsa decemlineata; experiment: Insecticidal activity against second-instar larval stage of Leptinotarsa decemlineata infested potato leaves assessed as mortality at 20 ul after 48 hr (reference value: 3.3 +/- 3.3%)
# [28] = system: Leptinotarsa decemlineata; experiment: Insecticidal activity against adult Leptinotarsa decemlineata infested potato leaves assessed as mortality at 10 ul after 12 hr relative to control
# [29] = system: Leptinotarsa decemlineata; experiment: Insecticidal activity against first-instar larval stage of Leptinotarsa decemlineata infested potato leaves assessed as mortality at 20 ul after 24 hr relative to control
# [30] = system: Leptinotarsa decemlineata; experiment: Insecticidal activity against adult Leptinotarsa decemlineata infested potato leaves assessed as mortality at 20 ul after 24 hr relative to control
# [31] = system: Leptinotarsa decemlineata; experiment: Insecticidal activity against second-instar larval stage of Leptinotarsa decemlineata infested potato leaves assessed as mortality at 10 ul after 96 hr (reference value: 3.3 +/- 3.3%)
# [32] = system: Leptinotarsa decemlineata; experiment: Insecticidal activity against adult Leptinotarsa decemlineata infested potato leaves assessed as mortality at 20 ul after 48 hr relative to control
SMILES,mortality [1],mortality [2],mortality [3],mortality [4],mortality [5],mortality [6],mortality [7],mortality [8],mortality [9],mortality [10],mortality [11],mortality [12],mortality [13],mortality [14],mortality [15],mortality [16],mortality [17],mortality [18],mortality [19],mortality [20],other results
CC(=O)OC/C=C(/C)CCC=C(C)C [NERYL ACETATE],3.3%,0%,20%,0%,10%,0%,26.7%,23.3%,6.7%,0%,33.3%,0%,0%,23.3%,3.3%,43.3%,6.7%,70%,0%,10%,mortality [21]: 6.7%; mortality [22]: 10%; mortality [23]: 0%; mortality [24]: 30%; mortality [25]: 0%; mortality [26]: 3.3%; mortality [27]: 3.3%; mortality [28]: 0%; mortality [29]: 10%; mortality [30]: 10%; mortality [31]: 0%; mortality [32]: 13.3%
CC1=CCC(C(C)C)=CC1 [GAMMA-TERPINENE],100%,26.7%,40%,100%,33.3%,100%,66.7%,10%,30%,100%,33.3%,100%,100%,16.7%,46.7%,50%,100%,90%,90%,100%,mortality [21]: 100%; mortality [22]: 100%; mortality [23]: 43.3%; mortality [24]: 100%; mortality [25]: 16.7%; mortality [26]: 100%; mortality [27]: 100%; mortality [28]: 20%; mortality [29]: 100%; mortality [30]: 96.7%; mortality [31]: 100%; mortality [32]: 100%
CC(C)=CCCC(C)CCO (stereo not given) [CITRONELLOL],16.7%,20%,13.3%,40%,26.7%,50%,13.3%,3.3%,23.3%,46.7%,6.7%,40%,46.7%,3.3%,0%,16.7%,0%,13.3%,6.7%,16.7%,mortality [21]: 26.7%; mortality [22]: 26.7%; mortality [23]: 6.7%; mortality [24]: 0%; mortality [25]: 20%; mortality [26]: 20%; mortality [27]: 23.3%; mortality [28]: 13.3%; mortality [29]: 3.3%; mortality [30]: 0%; mortality [31]: 50%; mortality [32]: 0%
CC1=CCC(O)(C(C)C)CC1 (stereo not given) [TERPINEOL],60%,16.7%,76.7%,83.3%,23.3%,100%,93.3%,3.3%,23.3%,73.3%,26.7%,40%,100%,23.3%,16.7%,40%,40%,100%,33.3%,100%,mortality [21]: 100%; mortality [22]: 100%; mortality [23]: 0%; mortality [24]: 100%; mortality [25]: 6.7%; mortality [26]: 100%; mortality [27]: 100%; mortality [28]: 3.3%; mortality [29]: 86.7%; mortality [30]: 43.3%; mortality [31]: 100%; mortality [32]: 80%
CC(C)=CCC/C(C)=C\CO [NEROL],10%,56.7%,16.7%,16.7%,80%,56.7%,20%,16.7%,73.3%,36.7%,30%,16.7%,36.7%,16.7%,6.7%,46.7%,10%,23.3%,13.3%,46.7%,mortality [21]: 53.3%; mortality [22]: 56.7%; mortality [23]: 13.3%; mortality [24]: 13.3%; mortality [25]: 26.7%; mortality [26]: 16.7%; mortality [27]: 46.7%; mortality [28]: 13.3%; mortality [29]: 16.7%; mortality [30]: 6.7%; mortality [31]: 56.7%; mortality [32]: 10%
